From article PMC5663395, “Chemical Validation of Methionyl-tRNA Synthetase as a Druggable Target in Leishmania donovani” (ACS Infectious Diseases, 2017) come the findings set out here.

Like-named read-outs stand apart in the source and are kept apart here.

In this experiment the test system is L. donovani intracellular amastigote. The experiment can be described thus: Leishmania intracellular amastigote assay. The experiment is classed as cell-based. As to the method:
carried out as described above using 5%, 10% and 20% FBS in the media. To examine the effect of the methionine concentration on the potency of DDD806905 parasites were grown in the presence of drug and in the presence (or absence) of 20-fold excess methionine (0.3 g/l). IC50 curve fitting was undertaken in GraFit version 6.0 (Erithacus Software) using a four-parameter logistic dose-response curve (equation 6), with s the slope.
Leishmania Axenic Amastigote Assay
The Leishmania axenic amastigote assay was performed using the method published in Nühs et al 15.
Leishmania Intracellular Amastigote Assay
The intramacrophage Leishmania assay was performed using a modified version of the method described in De Rycker et al 16. […]
amphotericin B was included. Controls were as follows: columns 11 and 12: DMSO, columns 23 and 24: amphotericin B (final concentration 2 µM). 350 nl of compound was pre-dispensed into 384-well sterile intermediary plates. To the intermediary plates, 35 µl of THP-1 media was added and plates were shaken for >5 min to ensure complete mixing. THP-1 cells (8,000 per well, 50 µl) were plated into black clear-bottom 384-well plates (Corning) in presence of 20 nM phorbol 12-myristate 13- […]
in a humidified incubator for 75 h. The cells were then washed with 450 µl sterile phosphate buffered saline (PBS) supplemented with 1 mM CaCl2, 0.5 mM MgCl2, 0.1% (w/v) bovine serum albumin (PBS-A) and amastigotes were added to all wells at a multiplicity of infection of 5 (40,000 amastigotes per well). After 40 min at room temperature, plates were returned to the incubator.
Amastigotes were incubated in the presence of THP-1 macrophages for 16 h. Any remaining extracellular amastigotes were subsequently removed by washing with PBS-A followed by addition of 25 µl of the compound pre-dilutions using an Ipette-pro pipetting station (FluidX). The final dilution of each compound was 200-fold. […] For each well, i) THP-1 cell count (cytotoxicity readout) and ii) average number of amastigotes per cell (potency readout) were […]
calculated, both in terms of pEC50 values. […]

As a reminder, the EC50 is the midpoint of the concentration-response curve. For `Cl.Cl.O=c1nc(NCCCNCc2cc3c(Cl)cc(Cl)cc3[nH]2)[nH]c2ccccc12` [DDD806905, 2-((3-(((4,6-dichloro-1H-indol-2-yl)methyl)amino)propyl)amino)quinazolin-4(1H)-one dihydrochloride], the EC50 is, setting by setting: (in THP-1 macrophages, read-out: intracellular amastigote EC50) 2.9 µM; (representative curve, n=8 technical replicates, read-out: intracellular amastigote EC50, representative potency determination) 2.8 µM. Further, the MIC (intracellular assay, lowest concentration with maximal inhibition, read-out: MIC (minimum inhibitory concentration)) was found to be 4.3 µM.
